From ChEMBL document CHEMBL6092156, “Design and development of a series of 4-(piperazin-1-yl)pyrimidines as irreversible menin inhibitors” (Eur J Med Chem, 2024)
Converted amounts (≈) assume the structure as drawn. The source made the active and inactive calls. No cut-off for these calls is given here.

Columns and labels:
[1] = Suppression of MEN1 gene transcription in human MV4-11 cells assessed as protein synthesis by measuring fold change at 10 uM incubated for 36 hrs in presence of 50 ug/ml cycloheximide relative to control; format: functional
[2] = Suppression of MEN1 gene transcription in human MV4-11 cells assessed as protein synthesis by measuring fold change at 10 uM incubated for 12 hrs in presence of 50 ug/ml cycloheximide relative to control; format: functional
[3] = Toxicity in nu/nu mouse model assessed as body weight loss at 10 to 20 mg/kg, ip bid for 15 days measured twice a week during compound dosing; format: organism-based; conditions: in vivo, 360 h, dose 10-20 mg/kg, time 15 day
[4] = Suppression of MEN1 gene transcription in human MV4-11 cells assessed as protein synthesis by measuring fold change at 10 uM incubated for 48 hrs relative to control; format: functional
[5] = Observed AUCinfinity in female ICR mouse at 5 mg/kg, ip by LC-MS/MS analysis; format: ADME, organism-based; conditions: in vivo
[6] = AUClast in female ICR mouse at 5 mg/kg, ip by LC-MS/MS analysis; format: ADME, organism-based; conditions: in vivo
MV4-11 [7] = test: Antiproliferative activity against human menin-sensitive MV4-11 cells assessed as inhibition of cell growth incubated for 7 days by MTS assay; format: functional, cell-based; conditions: MV4-11, 168 h
[8] = Solubility of compound in water by HPLC analysis; format: physicochemical
MV4-11 [9] = test: Antiproliferative activity against human MV4-11 cells assessed as reduction in cell viability at 80 nM preincubated for 7 days and followed by compound washout and measured on day 14 after compound readdition relative to control; format: functional; conditions: time 21 day
MOLM-13 = test: Antiproliferative activity against human MOLM-13 cells harboring MLL-AF9 assessed as cell growth inhibition incubated for 7 days by MTS assay; format: functional, cell-based; conditions: MOLM-13, 168 h
[10] = Antiproliferative activity against human MINO cells assessed as cell growth inhibition incubated for 7 days by MTS assay; format: functional, cell-based; conditions: 168 h
MV4-11 [11] = test: Downregulation of HOXA9 expression level in human MV4-11 cells at 10 uM incubated for 48 hrs by qRT-PCR analysis; format: functional, cell-based
[12] = Cytotoxicity against human PBMC cells assessed as cell viability incubated for 7 days by MTS assay; format: toxicity, cell-based
HL-60 = test: Antiproliferative activity against human HL-60 cells assessed as cell growth inhibition incubated for 7 days by MTS assay; format: functional, cell-based; conditions: HL-60, 168 h
[13] = Suppression of MEN1 gene transcription in human MV4-11 cells assessed as protein synthesis by measuring fold change at 10 uM incubated for 48 hrs in presence of 50 ug/ml cycloheximide relative to control; format: functional
[14] = Half life in female ICR mouse at 5 mg/kg, ip by LC-MS/MS analysis; format: ADME, organism-based; conditions: in vivo
[15] = Cmax in female ICR mouse at 5 mg/kg, ip by LC-MS/MS analysis; format: ADME, organism-based; conditions: in vivo
MV4-11 [16] = test: Antiproliferative activity against human MV4-11 cells assessed as reduction in cell viability at 100 nM preincubated for 7 days and followed by compound washout and measured on day 14 after compound readdition; format: functional, cell-based; conditions: time 21.0 day
REH [17] = test: Downregulation of MEIS1 expression level in human REH cells at 10 uM incubated for 48 hrs by qRT-PCR analysis; format: functional, cell-based
[18] = Observed MRTinfinity in female ICR mouse at 5 mg/kg, ip by LC-MS/MS analysis; format: ADME, organism-based; conditions: in vivo
MV4-11 [19] = test: Antiproliferative activity against human MV4-11 cells harboring MLL-AF4 assessed as cell growth inhibition incubated for 7 days by MTS assay; format: functional, cell-based; conditions: MV4-11, 168 h
MV4-11 [20] = test: Antiproliferative activity against human MV4-11 cells assessed as reduction in cell viability incubated for 7 days and measured after compound washout; format: functional, cell-based; conditions: time 7.0 day
REH [21] = test: Downregulation of HOXA9 expression level in human REH cells at 10 uM incubated for 48 hrs by qRT-PCR analysis; format: functional, cell-based
MV4-11 [22] = test: Inhibition of menin protein expression in human MV-4-11 cells measured after 48 hrs incubation by Western blot analysis; format: functional, cell-based; conditions: dose 1-37 µM
MV4-11 [23] = test: Suppression of MEN1 gene transcription in human MV4-11 cells incubated for 48 hrs by relative gene expression assay; format: functional, cell-based
MV4-11 [24] = test: Antitumor activity against human MV4-11 cells xenografted in nu/nu mouse model assessed as tumor growth rate at 20 mg/kg, ip bid for 15 days measured twice a week during compound dosing by caliper method relative to control; format: functional; conditions: time 15 day
REH [25] = test: Antiproliferative activity against human REH cells assessed as cell growth inhibition incubated for 7 days by MTS assay; format: functional, cell-based; conditions: 168 h
MOLM-14 = test: Antiproliferative activity against human MOLM-14 cells harboring MLL-AF9 assessed as cell growth inhibition incubated for 7 days by MTS assay; format: functional, cell-based; conditions: MOLM-14, 168 h
[26] = target: Menin/Histone-lysine N-methyltransferase MLL (Homo sapiens, UniProt O00255); test: Inhibition of menin (unknown origin)/N-terminal FITC-labeled MLL1 peptide (unknown origin) interaction incubated for 30 min by fluorescence polarization assay; format: protein assay
Menin/Histone-lysine N-methyltransferase MLL, sequence (O00255 whole entry): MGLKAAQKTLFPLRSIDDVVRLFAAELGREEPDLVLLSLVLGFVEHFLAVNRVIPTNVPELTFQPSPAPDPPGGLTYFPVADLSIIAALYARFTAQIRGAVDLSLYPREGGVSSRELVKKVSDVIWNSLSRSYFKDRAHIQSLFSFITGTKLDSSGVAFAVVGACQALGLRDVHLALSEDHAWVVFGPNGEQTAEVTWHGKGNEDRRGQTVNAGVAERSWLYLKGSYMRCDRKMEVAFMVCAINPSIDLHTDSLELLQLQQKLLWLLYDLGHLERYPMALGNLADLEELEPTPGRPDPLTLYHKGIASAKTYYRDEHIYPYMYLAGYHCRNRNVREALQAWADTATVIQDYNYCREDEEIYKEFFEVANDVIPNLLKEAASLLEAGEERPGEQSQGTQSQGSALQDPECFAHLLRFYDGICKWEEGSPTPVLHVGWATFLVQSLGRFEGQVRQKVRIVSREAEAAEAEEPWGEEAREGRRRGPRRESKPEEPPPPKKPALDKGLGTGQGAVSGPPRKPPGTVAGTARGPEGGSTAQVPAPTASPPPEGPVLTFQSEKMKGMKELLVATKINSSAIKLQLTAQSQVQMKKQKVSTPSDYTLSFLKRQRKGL
Menin/Histone-lysine N-methyltransferase MLL, sequence (Q03164 1-2718 partner limits assumed): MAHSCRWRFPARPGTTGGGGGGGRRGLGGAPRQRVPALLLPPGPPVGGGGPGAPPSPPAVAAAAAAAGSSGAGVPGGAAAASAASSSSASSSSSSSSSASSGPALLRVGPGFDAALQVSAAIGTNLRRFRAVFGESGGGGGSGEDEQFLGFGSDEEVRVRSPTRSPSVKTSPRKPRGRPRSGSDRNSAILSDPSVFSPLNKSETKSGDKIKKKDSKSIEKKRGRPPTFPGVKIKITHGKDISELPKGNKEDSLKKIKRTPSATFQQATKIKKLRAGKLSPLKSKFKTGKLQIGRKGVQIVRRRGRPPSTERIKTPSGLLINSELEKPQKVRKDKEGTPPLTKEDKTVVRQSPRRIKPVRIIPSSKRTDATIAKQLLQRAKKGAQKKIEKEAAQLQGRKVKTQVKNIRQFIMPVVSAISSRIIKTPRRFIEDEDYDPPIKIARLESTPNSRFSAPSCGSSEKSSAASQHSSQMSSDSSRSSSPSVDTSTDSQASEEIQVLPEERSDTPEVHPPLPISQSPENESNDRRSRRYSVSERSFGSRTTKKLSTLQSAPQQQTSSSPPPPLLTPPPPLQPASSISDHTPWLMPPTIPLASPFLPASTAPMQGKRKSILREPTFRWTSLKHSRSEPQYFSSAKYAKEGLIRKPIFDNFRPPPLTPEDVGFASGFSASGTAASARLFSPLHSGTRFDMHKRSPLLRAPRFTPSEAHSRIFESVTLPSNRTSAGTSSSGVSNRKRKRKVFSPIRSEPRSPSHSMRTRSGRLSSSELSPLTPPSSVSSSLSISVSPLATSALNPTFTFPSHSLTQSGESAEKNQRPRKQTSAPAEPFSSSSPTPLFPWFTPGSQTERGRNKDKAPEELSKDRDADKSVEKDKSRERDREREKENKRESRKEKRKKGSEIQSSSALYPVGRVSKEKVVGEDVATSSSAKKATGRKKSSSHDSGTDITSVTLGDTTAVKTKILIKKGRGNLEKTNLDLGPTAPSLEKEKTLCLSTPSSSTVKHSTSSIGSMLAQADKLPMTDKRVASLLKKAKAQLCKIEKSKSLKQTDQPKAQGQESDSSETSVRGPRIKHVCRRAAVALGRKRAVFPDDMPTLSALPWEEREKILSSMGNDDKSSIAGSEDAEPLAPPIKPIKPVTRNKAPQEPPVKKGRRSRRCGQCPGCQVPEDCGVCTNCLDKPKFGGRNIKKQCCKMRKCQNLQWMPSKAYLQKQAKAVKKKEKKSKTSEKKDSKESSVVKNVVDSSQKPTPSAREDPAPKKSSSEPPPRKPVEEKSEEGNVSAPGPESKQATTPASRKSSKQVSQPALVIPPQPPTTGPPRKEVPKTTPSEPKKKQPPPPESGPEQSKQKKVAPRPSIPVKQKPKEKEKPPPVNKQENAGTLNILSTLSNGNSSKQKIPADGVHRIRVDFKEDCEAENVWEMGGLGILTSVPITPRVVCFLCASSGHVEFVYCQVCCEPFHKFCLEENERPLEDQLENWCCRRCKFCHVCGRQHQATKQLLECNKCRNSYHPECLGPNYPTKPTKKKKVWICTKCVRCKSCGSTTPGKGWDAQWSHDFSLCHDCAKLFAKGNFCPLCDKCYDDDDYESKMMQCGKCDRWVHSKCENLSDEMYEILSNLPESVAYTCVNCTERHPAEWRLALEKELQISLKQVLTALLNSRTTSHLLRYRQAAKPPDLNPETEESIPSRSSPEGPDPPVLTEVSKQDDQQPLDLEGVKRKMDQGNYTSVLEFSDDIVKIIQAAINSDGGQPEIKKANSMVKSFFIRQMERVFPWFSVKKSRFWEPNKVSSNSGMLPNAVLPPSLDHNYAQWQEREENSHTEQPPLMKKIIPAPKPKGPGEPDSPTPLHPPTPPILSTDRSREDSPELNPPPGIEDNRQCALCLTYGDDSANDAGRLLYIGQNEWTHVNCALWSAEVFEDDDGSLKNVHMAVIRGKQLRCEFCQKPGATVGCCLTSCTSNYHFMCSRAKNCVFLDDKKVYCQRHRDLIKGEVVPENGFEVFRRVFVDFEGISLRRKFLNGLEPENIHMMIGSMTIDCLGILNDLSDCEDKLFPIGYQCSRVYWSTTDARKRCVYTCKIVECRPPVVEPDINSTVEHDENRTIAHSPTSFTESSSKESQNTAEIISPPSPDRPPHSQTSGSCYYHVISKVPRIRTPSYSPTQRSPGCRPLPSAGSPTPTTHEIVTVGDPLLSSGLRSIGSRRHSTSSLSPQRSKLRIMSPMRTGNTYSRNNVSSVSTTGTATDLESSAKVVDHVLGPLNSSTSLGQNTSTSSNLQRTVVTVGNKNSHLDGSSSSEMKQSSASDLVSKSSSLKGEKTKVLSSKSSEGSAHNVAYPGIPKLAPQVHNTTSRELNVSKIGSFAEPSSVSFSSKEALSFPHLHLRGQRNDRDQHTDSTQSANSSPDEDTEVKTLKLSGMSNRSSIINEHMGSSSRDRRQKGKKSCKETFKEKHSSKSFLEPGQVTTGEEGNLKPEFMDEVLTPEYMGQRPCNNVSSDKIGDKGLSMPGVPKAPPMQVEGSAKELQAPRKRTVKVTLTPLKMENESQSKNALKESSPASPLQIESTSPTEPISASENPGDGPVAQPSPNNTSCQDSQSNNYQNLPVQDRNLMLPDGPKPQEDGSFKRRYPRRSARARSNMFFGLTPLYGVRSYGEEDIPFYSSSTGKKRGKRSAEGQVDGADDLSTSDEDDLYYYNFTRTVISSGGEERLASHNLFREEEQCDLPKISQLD
Menin/Histone-lysine N-methyltransferase MLL, sequence (Q03164 2719-3969 partner limits assumed): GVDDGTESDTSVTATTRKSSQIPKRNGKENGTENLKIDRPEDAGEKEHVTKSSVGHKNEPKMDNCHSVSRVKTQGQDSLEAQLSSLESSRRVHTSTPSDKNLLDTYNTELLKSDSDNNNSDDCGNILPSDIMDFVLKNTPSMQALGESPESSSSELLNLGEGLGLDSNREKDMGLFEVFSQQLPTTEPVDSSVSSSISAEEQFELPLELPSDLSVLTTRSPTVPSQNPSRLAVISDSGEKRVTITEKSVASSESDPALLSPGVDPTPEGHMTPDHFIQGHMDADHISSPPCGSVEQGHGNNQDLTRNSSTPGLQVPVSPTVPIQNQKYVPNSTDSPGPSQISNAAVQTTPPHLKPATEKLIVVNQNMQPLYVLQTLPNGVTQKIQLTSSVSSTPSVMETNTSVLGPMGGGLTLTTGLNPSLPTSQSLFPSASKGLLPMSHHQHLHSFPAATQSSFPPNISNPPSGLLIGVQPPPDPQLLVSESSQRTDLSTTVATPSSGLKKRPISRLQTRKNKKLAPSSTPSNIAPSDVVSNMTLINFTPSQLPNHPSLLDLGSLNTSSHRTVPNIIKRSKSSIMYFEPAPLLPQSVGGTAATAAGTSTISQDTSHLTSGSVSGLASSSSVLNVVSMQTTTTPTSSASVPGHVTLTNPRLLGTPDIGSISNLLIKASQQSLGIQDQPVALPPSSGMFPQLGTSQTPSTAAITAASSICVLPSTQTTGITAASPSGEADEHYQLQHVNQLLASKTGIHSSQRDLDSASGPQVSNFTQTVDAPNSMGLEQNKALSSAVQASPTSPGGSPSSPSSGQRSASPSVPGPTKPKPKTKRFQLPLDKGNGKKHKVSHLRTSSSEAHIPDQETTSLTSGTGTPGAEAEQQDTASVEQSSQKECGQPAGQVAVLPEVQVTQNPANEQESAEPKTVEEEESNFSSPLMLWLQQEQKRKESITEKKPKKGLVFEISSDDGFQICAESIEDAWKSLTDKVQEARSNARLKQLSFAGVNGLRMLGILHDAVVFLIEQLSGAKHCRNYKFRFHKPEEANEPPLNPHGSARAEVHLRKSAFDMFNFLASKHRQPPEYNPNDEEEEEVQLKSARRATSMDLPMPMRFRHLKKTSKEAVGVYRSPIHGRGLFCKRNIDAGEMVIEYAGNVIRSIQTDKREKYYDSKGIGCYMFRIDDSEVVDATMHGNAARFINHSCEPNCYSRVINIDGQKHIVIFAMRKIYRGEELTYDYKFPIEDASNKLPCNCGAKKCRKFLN

[27] = Suppression of MEN1 gene transcription in human MV4-11 cells assessed as protein synthesis by measuring fold change at 10 uM incubated for 48 hrs in presence of 20 nM carfilzomib relative to control; format: functional
MV4-11 [28] = test: Antitumor activity against human MV4-11 cells xenografted in nu/nu mouse model assessed as tumor growth rate at 10 mg/kg, ip bid for 15 days measured twice a week during compound dosing by caliper method relative to control; format: functional; conditions: time 15 day
[29] = Tmax in female ICR mouse at 5 mg/kg, ip by LC-MS/MS analysis; format: ADME, organism-based; conditions: in vivo
MV4-11 [30] = test: Antiproliferative activity against human MV4-11 cells assessed as reduction in cell viability at 50 nM incubated for 7 days and measured after compound washout relative to control; format: functional; conditions: time 7 day
MV4-11 [31] = test: Downregulation of MEIS1 expression level in human MV4-11 cells at 10 uM incubated for 48 hrs by qRT-PCR analysis; format: functional, cell-based
[32] = test system: Acute myeloid leukemic cell; test: Induction of cell differentiation in human acute myeloid leukemia patient-derived cells assessed as increase in CD11b at 150 nM incubated for 7 days by cytoFLEX flow cytometric analysis; format: functional, cell-based; conditions: time 7.0 day
[33] = Suppression of MEN1 gene transcription in human MV4-11 cells assessed as protein synthesis by measuring fold change at 10 uM incubated for 24 hrs in presence of 50 ug/ml cycloheximide relative to control; format: functional
MV4-11 [34] = test: Antitumor activity against human MV4-11 cells xenografted in ip treated nu/nu mouse model assessed as tumor growth inhibition measured upto 15 days; format: functional, organism-based; conditions: dose 10-20 mg/kg, time <= 15.0 day
REH [35] = test: Antiproliferative activity against human menin-insensitive REH cells assessed as inhibition of cell growth incubated for 7 days by MTS assay; format: functional, cell-based; conditions: 168 h
RS4-11 = test: Antiproliferative activity against human RS4;11 cells harboring MLL-AF4 assessed as cell growth inhibition incubated for 7 days by MTS assay; format: functional, cell-based; conditions: RS4-11, 168 h
MV4-11 [36] = test: Antiproliferative activity against human MV4-11 cells assessed as reduction in cell viability preincubated for 7 days and followed by compound washout and measured on day 14 after compound readdition; format: functional, cell-based; conditions: time 21.0 day

- AUC(0-inf) [5]: 1230 ng·h/mL
- AUC(0-t) [6]: 1150 ng·h/mL
- IC50 (MV4-11 [7]): 30 nM
- solubility [8]: 1230 µg/mL (≈ 1590 µM)
- IC50 (MOLM-13): 221 nM
- IC50 (HL-60): > 3000 nM
- half-life [14]: 1.59 h
- Cmax [15]: 980 ng/mL
- MRT inf [18]: 1.85 h
- IC50 (MV4-11 [19]): 49 nM
- IC50 (MOLM-14): 103 nM
- IC50 [26]: 18.2 nM
- Tmax [29]: 0.25 h
- IC50 (RS4-11): 272 nM
Compound: CCN(C(=O)c1cc(F)ccc1Nc1cncnc1N1CCN(CC2CN(c3ccc(S(=O)(=O)C4CN(C(=O)/C=C/CN(C)C)C4)cc3)C2)C(C)C1)C(C)C (stereo not given)
- fold change (FC) [1]: 0.21
- fold change (FC) [2]: 0.69
- Activity [3]: Non-toxic
- fold change (FC) [4]: 0.08
- Activity (MV4-11 [9]): 100%
- IC50 [10]: > 3000 nM
- Activity (MV4-11 [11]): Active
- IC50 at 7 days [12]: > 3000 nM
- fold change (FC) [13]: 0.25
- Activity (MV4-11 [16]): Active
- Activity (REH [17]): Active; Little Impact Observed
- Activity (MV4-11 [20]): inactive
- Activity (REH [21]): Active; Little Impact Observed
- Activity (MV4-11 [22]): Dose-dependent-effect; Significantly Greater Inhibition At 10 Um Than That Of Sndx-5613
- Activity (MV4-11 [23]): Active
- Activity (MV4-11 [24]): 35.85%
- IC50 (REH [25]): > 3000 nM
- fold change (FC) [27]: 0.14
- Activity (MV4-11 [28]): 55.64%
- Activity (MV4-11 [30]): 100%
- Activity (MV4-11 [31]): Active
- Activity [32]: Active
- fold change (FC) [33]: 0.31
- Activity (MV4-11 [34]): Dose-dependent-effect
- IC50 (REH [35]): 8400 nM
- Activity (MV4-11 [36]): Dose-dependent-effect
